Source: patent US20150322083A1, “(THIENO[2,3-b][1,5]BENZOXAZEPIN-4-YL)PIPERAZIN-1-YL COMPOUNDS AS SELECTIVE 5-HT2A INVERSE AGONISTS” (Eli Lilly and Company, priority 2014, published 2015)

Target: T1, 5-HT2A receptor (Rattus norvegicus, UniProt P14842)
T1 construct: from tissue; host or cells: rat brain (frontal cortex vs cerebellum), in vivo
Test: 5-HT2A receptor occupancy in vivo (MDL 100907 tracer)
Design: species or system male Sprague-Dawley rats
Conditions: oral gavage, 1 hr. before tracer
Protocol: Briefly, male Sprague-Dawley rats (Harlan Sprague-Dawley, Indianapolis, Ind.) weighing approximately 230-280 g are given ad lib access to food and water until the beginning of the 3 hr. experimental protocol. 1 mg/Kg ketanserin (non-selective 5-HT2A antagonist) is used as a positive control to establish assay validity. Test compounds or control are administered by oral gavage in a vehicle comprised of 20% hydroxypropyl beta-cyclodextrin. MDL 100907 ((R)-(+)-α-(2,3-Dimethoxyphenyl)-1-[2-(4-fluorophenyl)ethyl]-4-piperidinemethanol), a selective 5-HT2A antagonist, is used as a tracer. […] It is at the time of tracer administration that receptor occupancy (RO) is considered to be measured. […] The level of MDL 100907 tracer is measured in each cortical and cerebellar sample. RO is calculated using the well-established ratio method which employs a region of high receptor density representative of total binding (frontal cortex) normalized by an area without or with very low levels of receptor (cerebellum). […]
MDL 100907 Analysis: Cortex and cerebellar samples are weighed and placed in conical centrifuge tubes on ice. […] Standards are prepared by adding known quantities of analyte to brain tissue samples from non-treated rats and processing as described above.+− […]

T1 sequence (P14842 whole entry): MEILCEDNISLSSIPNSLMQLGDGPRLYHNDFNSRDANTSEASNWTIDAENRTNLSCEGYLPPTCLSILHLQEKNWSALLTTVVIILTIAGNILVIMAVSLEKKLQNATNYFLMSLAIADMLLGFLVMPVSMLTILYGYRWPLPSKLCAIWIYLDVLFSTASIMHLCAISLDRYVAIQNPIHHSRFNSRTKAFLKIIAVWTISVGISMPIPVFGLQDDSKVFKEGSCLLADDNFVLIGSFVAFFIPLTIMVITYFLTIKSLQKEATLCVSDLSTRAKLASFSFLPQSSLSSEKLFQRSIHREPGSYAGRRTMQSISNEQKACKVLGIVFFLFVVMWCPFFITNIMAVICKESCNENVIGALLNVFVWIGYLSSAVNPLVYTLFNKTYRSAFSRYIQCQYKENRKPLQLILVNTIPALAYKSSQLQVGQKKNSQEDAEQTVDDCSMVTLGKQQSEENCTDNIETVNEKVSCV

Structure (SMILES): Cc1ccc2c(c1)Oc1sc(SC(C)C)cc1C(N1CCN(CC(C)(C)C(=O)O)CC1)=N2 [Example 1, 3-[4-(2-isopropylsulfanyl-8-methyl-thieno[2,3-b][1,5]benzoxazepin-4-yl)piperazin-1-yl]-2,2-dimethyl-propanoic acid]
- ED50: 0.54 mg/kg
